Measurements taken from patent US4258046A, “Pyrano-heterocycles and medicaments containing these compounds” (Hoechst Aktiengesellschaft, priority 1978, dated 1981).
Where a name gives a salt, the structure may show the parent alone.

Experiments:
[1] = test system: passive cutaneous anaphylaxis (PCA) in rats; experiment: Inhibition of passive cutaneous anaphylaxis (PCA) in rats on oral treatment; format: in vivo, Sprague-Dawley rats
Protocol: The compounds of the invention of the formula I and their salts have strong antiallergic properties and are well tolerated on intravenous as well as oral administration in the models of passive cutaneous anaphylaxis (P C A) to rats.
(§1) According to the method described by J. Goose and A. M. J. N. Blair, Immunology 16, 749 (1969) a P C A is made ready on Sprague-Dawley rats by intracutaneous administration of homologous antiserum, 0.1 ml of a dilution of 1:16 and 1:32 in both flanks. The antiserum is directed against ovalbumine and is induced in rats by combined administration of ovalbumine with Bordetella pertussis as adjuvant and boostering with Nippostrongylus larvae. 72 hours after the intracutaneous administration of the antiserum, the intravenous injection of the antigen consisting of a mixture of each time 25 mg/kg of ovalbumine and Evans blue is effected, in order to trigger the cutaneous anaphylactic reaction. The compounds of the formula I or their salts are administered, if intravenously, directly before the injection of the ovalbumine-dyestuff mixture and if administered orally, 30 minutes before the administration of the ovalbumine-dyestuff mixture. 10 Minutes after the ovalbumine-dyestuff injection, the animals are sacrificed and the diameter of spreading of the dyestuff is measured in the hypodermis.
(§2) As comparative substance, the standard preparation di- sodium-chromoglycate(DSCG) is used.

[2] = test system: passive cutaneous anaphylaxis (PCA) in rats; experiment: Inhibition of passive cutaneous anaphylaxis (PCA) in rats on intravenous treatment; format: in vivo, Sprague-Dawley rats; conditions: i.v., antiserum dilution 1:16
Protocol: as §1, with “The” for “According to the method described by J. Goose and A. M. J. N. Blair, Immunology 16, 749 (1969) a P C A is made ready on Sprague-Dawley rats by intracutaneous administration of homologous antiserum, 0.1 ml of a dilution of 1:16 and 1:32 in both flanks. The”
as §2

[3] = 10.0 mg/kg, antiserum dilution 1:16
[4] = 10.0 mg/kg, antiserum dilution 1:32

| SMILES | % Inhibition against control ([2]; 0.1 mg/kg) | % Inhibition against control ([2]; 0.3 mg/kg) | % Inhibition against control ([2]; 1.0 mg/kg) | % Inhibition against control ([2]; 3.0 mg/kg) | % Inhibition against control ([2]; 0.03 mg/kg) | other results |
| --- | --- | --- | --- | --- | --- | --- |
| O=C(O)c1cc(=O)c2c(OCC(O)COc3cccc4oc(C(=O)O)cc(=O)c34)cccc2o1 [DSCG, di- sodium-chromoglycate, reference compound] | 9% | 34% | 71% | – | – | activity when administered orally [1]: orally inactive; % Inhibition against control [1, 3]: 0%; % Inhibition against control [1, 4]: 0%; % Inhibition against control ([1]; 30.0 mg/kg, antiserum dilution 1:16): 5%; % Inhibition against control ([1]; 30.0 mg/kg, antiserum dilution 1:32): 0% |
| O=c1oc2c(c(O)c1[N+](=O)[O-])c(=O)n1c3c(cc(Cl)cc23)CCC1 [Example 24, 11-Chloro-7,8-dihydro-3-nitro-2,5-dioxo-2H,5H,9H-benzo-[ij]pyrano[2,3-b]quinolizine-4-ol-sodium salt] | 12% | 50% | 89% | 100% | – | % Inhibition against control ([1]; 0.3 mg/kg, antiserum dilution 1:16): 22%; % Inhibition against control ([1]; 0.3 mg/kg, antiserum dilution 1:32): 27%; % Inhibition against control ([1]; 1.0 mg/kg, antiserum dilution 1:16): 50%; % Inhibition against control ([1]; 1.0 mg/kg, antiserum dilution 1:32): 73%; % Inhibition against control ([1]; 3.0 mg/kg, antiserum dilution 1:16): 44%; % Inhibition against control ([1]; 3.0 mg/kg, antiserum dilution 1:32): 73%; % Inhibition against control [1, 3]: 44%; % Inhibition against control [1, 4]: 73% |
| Cn1c(=O)c2c(O)c([N+](=O)[O-])c(=O)oc2c2cc(Cl)ccc21 [Example 25, 9-Chloro-5,6-dihydro-6-methyl-3-nitro-2,5-dioxo-2H-pyrano[3,2-c]quinoline-4-ol] | 100% | – | – | – | 67% | % Inhibition against control ([2]; 0.01 mg/kg): 44% |
| CCn1c(=O)c2c(O)c([N+](=O)[O-])c(=O)oc2c2cc(Cl)ccc21 [Example 30, 6-Ethyl-9-chloro-5,6-dihydro-3-nitro-2,5-dioxo-2H-pyrano[3,2-c]-quinoline-4-ol] | 88% | 100% | – | – | 50% | – |
| CCn1c(=O)c2c(O)c([N+](=O)[O-])c(=O)oc2c2cc(F)ccc21.[Na] [Example 31, 6-Ethyl-9-fluoro-5,6-dihydro-3-nitro-2,5-dioxo-2H-pyrano[3,2-c]quinoline-4-ol-sodium salt] | 80% | 87% | – | 100% | 60% | % Inhibition against control ([2]; 0.01 mg/kg): 27% |
| CCn1c(=O)c2c(O)c([N+](=O)[O-])c(=O)oc2c2cc(C(F)(F)F)ccc21 [Example 32, 6-Ethyl-5,6-dihydro-3-nitro-2,5-dioxo-9-trifluoromethyl-2H-pyrano[3,2-c]quinoline-4-ol] | 69% | 75% | – | 100% | 19% | – |
| CCn1c(=O)c2c(O)c([N+](=O)[O-])c(=O)oc2c2cc(Cl)c(Cl)cc21 [Example 35, 6-Ethyl-8,9-dichloro-5,6-dihydro-3-nitro-2,5-dioxo-2H-pyrano[3,2-c]quinoline-4-ol] | 20% | 53% | 73% | – | – | % Inhibition against control ([2]; 30.0 mg/kg): 100% |
